{
  "source": "PubChem BioAssay AID1963985",
  "about": "(Molecular Pharmacology Branch, DTP, NCI, 2024);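 also: spheroids exposed to agents for seven days before readout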;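 as to viability, T/C: percent of vehicle DMSO control viability so 100% = untreated growth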",
  "test_system": "252836-082-R-J2-PDC tumor spheroids, viability",
  "assay": "Anticancer human tumor 252836-082-R-J2-PDC patient-derived head and neck squamous cell carcinoma cell line growth inhibition [PI3K]",
  "settings": "spheroids with HUVEC and MSC; for IC50: curve of first compound; for viability, T/C: stronger effect = lower value",
  "outline": "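Tumor cells grown as multi-cell spheroids with HUVEC endothelial cells and MSC fibroblast-like stroma were treated with targeted agents combined with inavolisib, alpelisib, duvelisib or copanlisib. Doses fell in half-log steps from near clinical Cmax, else from 10 microM. Viability was measured.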",
  "key": {"[1]": {"settings": "second compound 0.0316 µM, first compound 0.0316 µM"}, "[2]": {"settings": "second compound 0.0316 µM, first compound 0.1 µM"}, "[3]": {"settings": "second compound 0.0316 µM, first compound 0.316 µM"}, "[4]": {"settings": "second compound 0.0316 µM, first compound 1 µM"}, "[5]": {"settings": "second compound 0.0316 µM, first compound 3.16 µM"}, "[6]": {"settings": "second compound 0.0316 µM, first compound 10 µM"}, "[7]": {"settings": "second compound 0.1 µM, first compound 0.0316 µM"}, "[8]": {"settings": "second compound 0.1 µM, first compound 0.1 µM"}, "[9]": {"settings": "second compound 0.1 µM, first compound 0.316 µM"}, "[10]": {"settings": "second compound 0.1 µM, first compound 1 µM"}, "[11]": {"settings": "second compound 0.1 µM, first compound 3.16 µM"}, "[12]": {"settings": "second compound 0.1 µM, first compound 10 µM"}, "[13]": {"settings": "second compound 0.316 µM, first compound 0.0316 µM"}, "[14]": {"settings": "second compound 0.316 µM, first compound 0.1 µM"}, "[15]": {"settings": "second compound 0.316 µM, first compound 0.316 µM"}, "[16]": {"settings": "second compound 0.316 µM, first compound 1 µM"}, "[17]": {"settings": "second compound 0.316 µM, first compound 3.16 µM"}, "[18]": {"settings": "second compound 0.316 µM, first compound 10 µM"}, "[19]": {"settings": "second compound 1 µM, first compound 0.0316 µM"}, "[20]": {"settings": "second compound 1 µM, first compound 0.1 µM"}, "[21]": {"settings": "second compound 1 µM, first compound 0.316 µM"}, "[22]": {"settings": "second compound 1 µM, first compound 1 µM"}, "[23]": {"settings": "second compound 1 µM, first compound 3.16 µM"}, "[24]": {"settings": "second compound 1 µM, first compound 10 µM"}, "[25]": {"settings": "second compound 3.16 µM, first compound 0.0316 µM"}, "[26]": {"settings": "second compound 3.16 µM, first compound 0.1 µM"}, "[27]": {"settings": "second compound 3.16 µM, first compound 0.316 µM"}, "[28]": {"settings": "second compound 3.16 µM, first compound 1 µM"}, "[29]": {"settings": "second compound 3.16 µM, first compound 3.16 µM"}, "[30]": {"settings": "second compound 3.16 µM, first compound 10 µM"}, "[31]": {"settings": "second compound 10 µM, first compound 0.0316 µM"}, "[32]": {"settings": "second compound 10 µM, first compound 0.1 µM"}, "[33]": {"settings": "second compound 10 µM, first compound 0.316 µM"}, "[34]": {"settings": "second compound 10 µM, first compound 1 µM"}, "[35]": {"settings": "second compound 10 µM, first compound 3.16 µM"}, "[36]": {"settings": "second compound 10 µM, first compound 10 µM"}},
  "data": [
    {"smiles": "CC1(C)CCC(CN2CCN(c3ccc(C(=O)NS(=O)(=O)c4ccc(NCC5CCOCC5)c([N+](=O)[O-])c4)c(Oc4cnc5[nH]ccc5c4)c3)CC2)=C(c2ccc(Cl)cc2)C1", "note": "+ CC(Nc1ncnc2nc[nH]c12)c1cc2cccc(Cl)c2c(=O)n1-c1ccccc1", "values": [
      {"measurement": "IC50", "setting": "second compound 0.0316 µM", "result": "> 10", "unit": "µM"},
      {"measurement": "IC50", "setting": "second compound 0.1 µM", "result": "> 10", "unit": "µM"},
      {"measurement": "IC50", "setting": "second compound 0.316 µM", "result": "> 10", "unit": "µM"},
      {"measurement": "IC50", "setting": "second compound 1 µM", "result": "> 10", "unit": "µM"},
      {"measurement": "IC50", "setting": "second compound 3.16 µM", "result": "> 10", "unit": "µM"},
      {"measurement": "IC50", "setting": "second compound 10 µM", "result": "> 10", "unit": "µM"},
      {"measurement": "viability, T/C", "setting": "[1]", "result": 96.7, "unit": "%"},
      {"measurement": "viability, T/C", "setting": "[2]", "result": 88.3, "unit": "%"},
      {"measurement": "viability, T/C", "setting": "[3]", "result": 95.9, "unit": "%"},
      {"measurement": "viability, T/C", "setting": "[4]", "result": 93, "unit": "%"},
      {"measurement": "viability, T/C", "setting": "[5]", "result": 87.3, "unit": "%"},
      {"measurement": "viability, T/C", "setting": "[6]", "result": 81.8, "unit": "%"},
      {"measurement": "viability, T/C", "setting": "[7]", "result": 102, "unit": "%"},
      {"measurement": "viability, T/C", "setting": "[8]", "result": 77.1, "unit": "%"},
      {"measurement": "viability, T/C", "setting": "[9]", "result": 79, "unit": "%"},
      {"measurement": "viability, T/C", "setting": "[10]", "result": 99.1, "unit": "%"},
      {"measurement": "viability, T/C", "setting": "[11]", "result": 80.8, "unit": "%"},
      {"measurement": "viability, T/C", "setting": "[12]", "result": 86.7, "unit": "%"},
      {"measurement": "viability, T/C", "setting": "[13]", "result": 92.5, "unit": "%"},
      {"measurement": "viability, T/C", "setting": "[14]", "result": 100, "unit": "%"},
      {"measurement": "viability, T/C", "setting": "[15]", "result": 102, "unit": "%"},
      {"measurement": "viability, T/C", "setting": "[16]", "result": 106, "unit": "%"},
      {"measurement": "viability, T/C", "setting": "[17]", "result": 88.3, "unit": "%"},
      {"measurement": "viability, T/C", "setting": "[18]", "result": 81.6, "unit": "%"},
      {"measurement": "viability, T/C", "setting": "[19]", "result": 81, "unit": "%"},
      {"measurement": "viability, T/C", "setting": "[20]", "result": 89.8, "unit": "%"},
      {"measurement": "viability, T/C", "setting": "[21]", "result": 77.5, "unit": "%"},
      {"measurement": "viability, T/C", "setting": "[22]", "result": 93.8, "unit": "%"},
      {"measurement": "viability, T/C", "setting": "[23]", "result": 92.1, "unit": "%"},
      {"measurement": "viability, T/C", "setting": "[24]", "result": 96, "unit": "%"},
      {"measurement": "viability, T/C", "setting": "[25]", "result": 80.5, "unit": "%"},
      {"measurement": "viability, T/C", "setting": "[26]", "result": 84, "unit": "%"},
      {"measurement": "viability, T/C", "setting": "[27]", "result": 71.8, "unit": "%"},
      {"measurement": "viability, T/C", "setting": "[28]", "result": 81.2, "unit": "%"},
      {"measurement": "viability, T/C", "setting": "[29]", "result": 67, "unit": "%"},
      {"measurement": "viability, T/C", "setting": "[30]", "result": 65.7, "unit": "%"},
      {"measurement": "viability, T/C", "setting": "[31]", "result": 61, "unit": "%"},
      {"measurement": "viability, T/C", "setting": "[32]", "result": 64.3, "unit": "%"},
      {"measurement": "viability, T/C", "setting": "[33]", "result": 68.6, "unit": "%"},
      {"measurement": "viability, T/C", "setting": "[34]", "result": 65.8, "unit": "%"},
      {"measurement": "viability, T/C", "setting": "[35]", "result": 50.4, "unit": "%"},
      {"measurement": "viability, T/C", "setting": "[36]", "result": 55.1, "unit": "%"}
    ]},
    {"smiles": "C[C@@H](NC(=O)c1ncnc(N)c1Cl)c1ncc(C(=O)Nc2cc(C(F)(F)F)c(Cl)cn2)s1", "note": "+ CC(Nc1ncnc2nc[nH]c12)c1cc2cccc(Cl)c2c(=O)n1-c1ccccc1", "values": [
      {"measurement": "IC50", "setting": "second compound 0.0316 µM", "result": "> 10", "unit": "µM"},
      {"measurement": "IC50", "setting": "second compound 0.1 µM", "result": "> 10", "unit": "µM"},
      {"measurement": "IC50", "setting": "second compound 0.316 µM", "result": "> 10", "unit": "µM"},
      {"measurement": "IC50", "setting": "second compound 1 µM", "result": "> 10", "unit": "µM"},
      {"measurement": "IC50", "setting": "second compound 3.16 µM", "result": "> 10", "unit": "µM"},
      {"measurement": "IC50", "setting": "second compound 10 µM", "result": "> 10", "unit": "µM"},
      {"measurement": "viability, T/C", "setting": "[1]", "result": 109, "unit": "%"},
      {"measurement": "viability, T/C", "setting": "[2]", "result": 97.1, "unit": "%"},
      {"measurement": "viability, T/C", "setting": "[3]", "result": 100, "unit": "%"},
      {"measurement": "viability, T/C", "setting": "[4]", "result": 105, "unit": "%"},
      {"measurement": "viability, T/C", "setting": "[5]", "result": 103, "unit": "%"},
      {"measurement": "viability, T/C", "setting": "[6]", "result": 74, "unit": "%"},
      {"measurement": "viability, T/C", "setting": "[7]", "result": 96.3, "unit": "%"},
      {"measurement": "viability, T/C", "setting": "[8]", "result": 94.7, "unit": "%"},
      {"measurement": "viability, T/C", "setting": "[9]", "result": 86.7, "unit": "%"},
      {"measurement": "viability, T/C", "setting": "[10]", "result": 92.1, "unit": "%"},
      {"measurement": "viability, T/C", "setting": "[11]", "result": 94.5, "unit": "%"},
      {"measurement": "viability, T/C", "setting": "[12]", "result": 82.3, "unit": "%"},
      {"measurement": "viability, T/C", "setting": "[13]", "result": 90.1, "unit": "%"},
      {"measurement": "viability, T/C", "setting": "[14]", "result": 89.7, "unit": "%"},
      {"measurement": "viability, T/C", "setting": "[15]", "result": 98.5, "unit": "%"},
      {"measurement": "viability, T/C", "setting": "[16]", "result": 99.4, "unit": "%"},
      {"measurement": "viability, T/C", "setting": "[17]", "result": 94.3, "unit": "%"},
      {"measurement": "viability, T/C", "setting": "[18]", "result": 86.5, "unit": "%"},
      {"measurement": "viability, T/C", "setting": "[19]", "result": 96.8, "unit": "%"},
      {"measurement": "viability, T/C", "setting": "[20]", "result": 89.9, "unit": "%"},
      {"measurement": "viability, T/C", "setting": "[21]", "result": 90.7, "unit": "%"},
      {"measurement": "viability, T/C", "setting": "[22]", "result": 92.7, "unit": "%"},
      {"measurement": "viability, T/C", "setting": "[23]", "result": 97.8, "unit": "%"},
      {"measurement": "viability, T/C", "setting": "[24]", "result": 88.6, "unit": "%"},
      {"measurement": "viability, T/C", "setting": "[25]", "result": 73.5, "unit": "%"},
      {"measurement": "viability, T/C", "setting": "[26]", "result": 84.5, "unit": "%"},
      {"measurement": "viability, T/C", "setting": "[27]", "result": 89.5, "unit": "%"},
      {"measurement": "viability, T/C", "setting": "[28]", "result": 93.1, "unit": "%"},
      {"measurement": "viability, T/C", "setting": "[29]", "result": 72.7, "unit": "%"},
      {"measurement": "viability, T/C", "setting": "[30]", "result": 70.1, "unit": "%"},
      {"measurement": "viability, T/C", "setting": "[31]", "result": 70.8, "unit": "%"},
      {"measurement": "viability, T/C", "setting": "[32]", "result": 69, "unit": "%"},
      {"measurement": "viability, T/C", "setting": "[33]", "result": 55.5, "unit": "%"},
      {"measurement": "viability, T/C", "setting": "[34]", "result": 64.5, "unit": "%"},
      {"measurement": "viability, T/C", "setting": "[35]", "result": 72.1, "unit": "%"},
      {"measurement": "viability, T/C", "setting": "[36]", "result": 65.4, "unit": "%"}
    ]}
  ]
}
